# Assay results published in PMC7155171, “Probing the Open Global Health Chemical Diversity Library for Multistage-Active Starting Points for Next-Generation Antimalarials” (ACS Infectious Diseases, 2020).
# Read-outs that look alike come from different tables or passages of the source.
# What was measured:
# [1] = test system: HepG2-A16-CD81 hepatocytes; assay: cells; design: Uninfected hepatocyte viability, CellTiter-Glo luminescence; conditions: sheet CDD Export 1;, cytotoxicity primary screen, read-out: Table S5. Liver stage reconfirmation data / HepG2 Cytotoxicity primary screen (2uM): % Inhibition
# Protocol: For the screen, 5 μL of HepG2-A16-CD81 hepatocytes containing 3 × 10^3 cells was seeded into 1536-well plates, which had been prespotted with 10 nL of library compound (2 μM final assay concentration (Figure 1)) and incubated overnight. For PbLuc infected plates, approximately 750 purified sporozoites in 5 μL of screening media were added to each well and incubated for 48 h before measuring luciferase activity. Compounds were tested for toxicity in parallel (see Methods) by measuring uninfected hepatocyte viability using CellTiter-Glo. […] This hit rate was slightly lower than expected for an agnostic library, which prompted us to rescreen the entire library at 10 μM. The PbLuc and cytotoxicity assay plates for this second replicate would be stamped in-house with 50 nL of library compound per well, using the same compound plates as the sexual stage screen described below. All the assay parameters were kept similar, except the change in concentration and shortening the time the compounds spent in each well prior to infection. […] All potential false positive effectors from the CellTiter-Glo assay were filtered from subsequent studies (Table S1). Naturally, there were more primary hits from the 10 μM than the 2 μM screen due to the higher testing concentration. For reconfirmation, we sourced all the hits that inhibited PbLuc at >70% and mean HepG2 at <50% in the 2 μM screen or PbLuc at >60% in both 2 and 10 μM screens and mean HepG2 at <50%. The resulting compounds were acquired as DMSO stocks and retested in the dose response (50–2.82 × 10^–4 μM or 25–141.13 × 10^–6 μM) against PbLuc and uninfected hepatocytes (Table S5). […] The majority of these compounds were weak inhibitors, although 18 submicromolar hits were found (Table S5).
# [2] = test system: P. falciparum Dd2 (PfLuc) line expressing firefly luciferase, asexual blood stage; assay: microbe, parasite or virus in culture; type: cell-based, Plasmodium falciparum; conditions: Plasmodium falciparum
# [3] = test system: P. falciparum Dd2; assay: SYBR green I asexual blood stage proliferation assay (96 h); type: cell-based, Plasmodium falciparum; conditions: Plasmodium falciparum, DD2, 11-pt dose response, 96hr
# [4] = test system: P. falciparum (NF54) stage V gametocytes; assay: Stage V gametocyte viability assay (MitoTracker Red CMXRos high content imaging); type: cell-based, Plasmodium falciparum; conditions: Plasmodium falciparum; for inhibition at 2 µM: read-out: Stg V Gam primary screen: Inhibition % (2uM) (n=2)
# [5] = DD2, read-out: P. falciparum Luciferase ABS 11-pt Reconfirmation Dose Response (48hr): IC50, 11-pt dose response, 48hr
# [6] = DD2, 8-pt dose response, 96hr, read-out: P. falciparum Luciferase ABS 8-pt Reconfirmation Dose Response (96hr): IC50
# [7] = DD2, 8-pt dose response, 96hr, read-out: P. falciparum Luciferase ABS 8-pt Reconfirmation Dose Response (96hr): Maximum inhibition (%)
# [8] = DD2, 11-pt dose response, 96hr, read-out: P. falciparum Luciferase ABS 11-pt Reconfirmation Dose Response (96hr): IC50
# [9] = DD2, 11-pt dose response, 96hr, read-out: P. falciparum Luciferase ABS 11-pt Reconfirmation Dose Response (96hr): Maximum inhibition (%)
# [10] = read-out: P. falciparum Sybr Green I ABS 11-pt Reconfirmation Dose Response (96hr): IC50
# [11] = read-out: P. falciparum Sybr Green I ABS 11-pt Reconfirmation Dose Response (96hr): Maximum inhibition (%)
# [12] = NF54, 72 h, read-out: GAM V IC50, stage V gametocytes, 72 h
# [13] = NF54, 72 h, read-out: Stg V Gam dose response IC50 (µM) (n=3), 10-point dose response, n=3, 72 h
# [14] = DD2, read-out: CDD P. falciparum Luciferase ABS 11-pt Reconfirmation Dose Response (48hr): IC50 (μM), 11-pt dose response, 48hr
# [15] = DD2, 8-pt dose response, 96hr, read-out: CDD P. falciparum Luciferase ABS 8-pt Reconfirmation Dose Response (96hr): IC50
# [16] = DD2, 8-pt dose response, 96hr, read-out: CDD P. falciparum Luciferase ABS 8-pt Reconfirmation Dose Response (96hr): Maximum inhibition (%)
# [17] = DD2, 11-pt dose response, 96hr, read-out: CDD P. falciparum Luciferase ABS 11-pt Reconfirmation Dose Response (96hr): IC50
# [18] = DD2, 11-pt dose response, 96hr, read-out: CDD P. falciparum Luciferase ABS 11-pt Reconfirmation Dose Response (96hr): Maximum inhibition (%)
# [19] = Sybr Green I, read-out: CDD P. falciparum Sybr Green I ABS 11-pt Reconfirmation Dose Response (96hr): IC50
# [20] = Sybr Green I, read-out: CDD P. falciparum Sybr Green I ABS 11-pt Reconfirmation Dose Response (96hr): Maximum inhibition (%)
# [21] = DD2, 11-pt dose response, 48hr, read-out: CDD P. falciparum Luciferase ABS 11-pt Reconfirmation Dose Response (48hr): Maximum inhibition (%)
smiles,measurement,setting,value
O=S(=O)(c1ccc(Cl)s1)N1CCN(Cc2nc(-c3ccco3)cs2)CC1 [DDD01027755],inhibition at 2 µM,[1],12.1%
CC(C)(C)NC(=O)N1CCC(Oc2ccc(C(F)(F)F)cn2)CC1 [DDD01028321],inhibition at 2 µM,[1],-4.73%
COc1cccc(CN2CCc3nc(C(=O)NCC(C)C)sc3CC2)c1 [DDD01030710],inhibition at 2 µM,[1],-10.2%
CC(=O)Nc1ncc(S(=O)(=O)Nc2ccc3c(c2)OCCO3)s1 [DDD01037671],inhibition at 2 µM,[1],-2.36%
Cn1cncc1CN1CCCC1c1cncc(Oc2ccc(Cl)cc2)n1 (centres unmarked) [DDD01059295],inhibition at 2 µM,[1],0.825%
Cc1ncc(CN2CCOC(c3ccc(-c4ccccc4F)cn3)C2)s1 (centres unmarked) [DDD01059493],inhibition at 2 µM,[1],-6.23%
Cc1cc(-c2cnc(NCc3cccnc3)nc2C(C)(C)C)on1 [DDD01061148],inhibition at 2 µM,[1],-8.43%
COC1CCN(c2ccc(NC(=O)C3CC3)cc2C(F)(F)F)CC1 [DDD01061774],inhibition at 2 µM,[1],12.4%
N#Cc1c(Cl)nsc1NCc1cccnc1OCC(F)(F)F [DDD01067853],inhibition at 2 µM,[1],4.29%
COC(=O)c1sc(NCc2ccc(N3CCC(O)CC3)c(F)c2)nc1Cl [DDD01073922],inhibition at 2 µM,[1],5.85%
Cc1nc(C(=O)NC2CCN(CCOc3ccc(Br)cc3)CC2)cs1 [DDD01079205],inhibition at 2 µM,[1],17.6%
N#Cc1c(Cl)nsc1NCC1(c2ccccc2)CCC1 [DDD01079347],inhibition at 2 µM,[1],12%
CCc1ccc(-c2ncc3c(n2)N(C)CCN(CCN(C)C)C3=O)cc1 [DDD01235938],inhibition at 2 µM,[1],4.38%
Cc1ccc(Sc2ccc(CN3CCC4(CCCNC4=O)C3)o2)cc1 (centres unmarked) [DDD01244322],inhibition at 2 µM,[1],-4.2%
Clc1ccccc1-c1cc(CNc2ncnc3c2CCNCC3)no1 [DDD01247009],inhibition at 2 µM,[1],-1.07%
Fc1ccc(N2CCCN(c3ccc(Cn4ccnc4)cn3)CC2)cc1 [DDD01247581],inhibition at 2 µM,[1],3.83%
"CCc1[nH]c2c(CNc3cc(C)nc(NC)n3)cc(C)cc2c1C [DDD01250162, CCC1=C(C)C2=CC(C)=CC(CNC3=CC(C)=NC(NC)=N3)=C2N1]",IC50,[2]; [5],> 12.5 µM
same,IC50,[2]; [6],1.31 µM
same,Emax,[2]; [7],92.3%
same,Emax,"[2]; DD2, 11-pt dose response, 48hr, read-out: P. falciparum Luciferase ABS 11-pt Reconfirmation Dose Response (48hr): Maximum inhibition (%)",38.8%
same,IC50,[2]; [8],> 12.5 µM
same,Emax,[2]; [9],45.4%
same,IC50,[3]; [10],1550 nM
same,Emax,[3]; [11],94.1%
same,IC50,[4]; [12],4.9 µM
same,IC50,[4]; [13],4.9 µM
same,inhibition at 2 µM,"[4]; NF54, 72 h",64.1%
"CCc1[nH]c2c(CNc3nc(C)cc(NC)n3)cc(C)cc2c1C [DDD01251782, CCC1=C(C)C2=CC(C)=CC(CNC3=NC(C)=CC(NC)=N3)=C2N1]",IC50,[2]; [14],0.765 µM
same,IC50,[2]; [15],0.63 µM
same,Emax,[2]; [16],95.7%
same,IC50,[2]; [17],0.158 µM
same,Emax,[2]; [18],98.4%
same,IC50,[3]; [19],696 nM
same,Emax,[3]; [20],98%
same,IC50,"[4]; NF54, read-out: Stg V Gam dose response IC50 (µM) (n=3), 10-point dose response, n=3, 72 h",3.76 µM
same,inhibition at 2 µM,"[4]; NF54, Table S6, 2uM, n=2, 72 h",53.8%
same,IC50,"[4]; NF54, stage V gametocytes, 72 h, read-out: GAM V IC50",3.76 µM
COc1ccc(-c2cc(CNc3ncnc4c3CCNCC4)no2)cc1 [DDD01252258],inhibition at 2 µM,[1],4.02%
"NCC1CCN(C2CCN(c3ccc(-c4ccco4)cc3)CC2)C1 (centres unmarked) [DDD01252361, NCC1CCN(C1)C1CCN(CC1)C1=CC=C(C=C1)C1=CC=CO1]",IC50,[2]; [14],3 µM
same,IC50,[2]; [15],0.4 µM
same,Emax,[2]; [16],95.9%
same,Emax,[2]; [21],98.8%
same,IC50,[2]; [17],1.8 µM
same,Emax,[2]; [18],100%
same,IC50,[3]; [19],605 nM
same,Emax,[3]; [20],95.1%
same,IC50,[4]; [13],1.9 µM
same,inhibition at 2 µM,"[4]; NF54, 72 h",80.5%
CC(Nc1ncnc2c1CCNC2)c1ccc2c(c1)CCCC2 (centres unmarked) [DDD01252547],inhibition at 2 µM,[1],0.573%
"CCc1ccc(C2c3nc[nH]c3CCN2Cc2nccn2CC)nc1 (centres unmarked) [DDD01254473, CCN1C=CN=C1CN1CCC2=C(NC=N2)C1C1=CC=C(CC)C=N1]",IC50,[2]; [5],1.54 µM
same,IC50,[2]; [6],1.2 µM
same,Emax,[2]; [7],91.2%
same,IC50,[2]; [8],0.448 µM
same,Emax,[2]; [9],98.8%
same,IC50,[3]; [10],2640 nM
same,Emax,[3]; [11],78.6%
same,IC50,[4]; [13],0.056 µM
same,inhibition at 2 µM,"[4]; NF54, 72 h",80.6%
Cc1csc2ncnc(N3CCC(Cn4cc(C(C)(C)N)nn4)CC3)c12 [DDD01257281],inhibition at 2 µM,[1],4.6%
"CN(Cc1nccs1)c1nc(-c2ccccn2)nc2c1CCNCC2 [DDD01258014, CN(CC1=NC=CS1)C1=NC(=NC2=C1CCNCC2)C1=CC=CC=N1]",IC50,[2]; [14],2.11 µM
same,IC50,[2]; [15],1.09 µM
same,Emax,[2]; [16],89.8%
same,Emax,[2]; [21],76.9%
same,IC50,[2]; [17],0.455 µM
same,Emax,[2]; [18],98%
same,IC50,"[2]; 96 h incubation, Dd2 luciferase, read-out: 96 hour Pfluc IC50",0.46 µM
same,IC50,[3]; [19],8500 nM
same,Emax,[3]; [20],68.8%
same,IC50,[4]; [12],1.18 µM
same,IC50,[4]; [13],1.18 µM
same,inhibition at 2 µM,"[4]; NF54, 72 h",75.5%
Nc1nc(CCC(=O)N2CCOC(CC3CCCCC3)C2)cs1 (centres unmarked) [DDD01258215],inhibition at 2 µM,[1],-10.6%
CC(=O)c1ccc(N2CCC(CO)(CCOc3ccccc3)CC2)nc1 [DDD01258288],inhibition at 2 µM,[1],17.5%
Cc1nc(N2CC[C@@H](NC(=O)c3cnccn3)[C@H](O)C2)c2ccsc2n1 [DDD01258299],inhibition at 2 µM,[1],-14.6%
COc1cc(CNCc2ccnc(N3CCCCC3)c2)cc(OC)c1 [DDD01297270],inhibition at 2 µM,[1],-2.79%
CCc1cccc(N2CCC(NC(=O)c3ccco3)CC2)c1 [DDD01299802],inhibition at 2 µM,[1],4.14%
COc1cccc(CN2CCN(c3ccc4nncn4n3)C(C)C2)c1 (centres unmarked) [DDD01301691],inhibition at 2 µM,[1],-7.2%
Cc1noc(NC(=O)c2ccc(Br)s2)n1 [DDD01302055],inhibition at 2 µM,[1],5.11%
Cn1cc(NS(=O)(=O)c2ccc(OC(F)(F)F)cc2)ccc1=O [DDD01303273],inhibition at 2 µM,[1],-4.65%
CC(C)N(CC(N)=O)Cc1csc(COc2ccc(F)cc2)n1 [DDD01303358],inhibition at 2 µM,[1],6.02%
